# According to ChEMBL document CHEMBL5214933, “Discovery of Selenium-Containing STING Agonists as Orally Available Antitumor Agents” (J Med Chem, 2022):
# Activity calls are given as the source filed them. The calls are words filed in the database; no cut-off is given here.
# What was measured:
# [1] = Volume of distribution at steady state in Sprague-Dawley rat at 5 mg/kg, iv measured for 1440 mins by LC-MS/MS analysis; type: ADME, organism-based; conditions: in vivo, read-out: Vdss
# [2] = molecular target: T1, Stimulator of interferon genes protein (Homo sapiens, UniProt Q86WV6); test: Agonist activity at STING in human THP-1 cells harboring IRF-inducible luciferase reporter construct assessed as increase in TBK1 phosphorylation measured after 3 hrs by Western blot analysis; type: cell-based; conditions: filed as agonist, dose 10-50 µM, DDE = dose-dependent effect
# Target sequence in this assay (Q86WV6 whole entry): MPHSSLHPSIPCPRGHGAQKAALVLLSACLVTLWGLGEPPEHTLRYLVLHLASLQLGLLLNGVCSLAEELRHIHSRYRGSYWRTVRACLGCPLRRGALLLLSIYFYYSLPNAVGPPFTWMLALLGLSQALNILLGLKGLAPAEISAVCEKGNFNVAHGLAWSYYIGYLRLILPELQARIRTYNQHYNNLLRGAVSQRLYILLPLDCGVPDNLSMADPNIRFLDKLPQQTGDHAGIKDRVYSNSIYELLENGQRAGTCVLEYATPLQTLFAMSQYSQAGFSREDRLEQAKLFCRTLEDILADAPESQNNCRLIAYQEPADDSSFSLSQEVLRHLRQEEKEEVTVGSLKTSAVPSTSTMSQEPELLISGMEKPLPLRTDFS
# [3] = molecular target: T2, Stimulator of interferon genes protein (Mus musculus) (UniProt Q3TBT3); test: Agonist activity at STING in mouse RAW264.7 cells harboring IRF-inducible luciferase reporter construct assessed as increase in […] mRNA expression at 10 to 50 uM measured after 1 hr by qRT-PCR analysis; type: cell-based; conditions: filed as agonist, dose 10-50 µM
# T2 sequence (whole entry): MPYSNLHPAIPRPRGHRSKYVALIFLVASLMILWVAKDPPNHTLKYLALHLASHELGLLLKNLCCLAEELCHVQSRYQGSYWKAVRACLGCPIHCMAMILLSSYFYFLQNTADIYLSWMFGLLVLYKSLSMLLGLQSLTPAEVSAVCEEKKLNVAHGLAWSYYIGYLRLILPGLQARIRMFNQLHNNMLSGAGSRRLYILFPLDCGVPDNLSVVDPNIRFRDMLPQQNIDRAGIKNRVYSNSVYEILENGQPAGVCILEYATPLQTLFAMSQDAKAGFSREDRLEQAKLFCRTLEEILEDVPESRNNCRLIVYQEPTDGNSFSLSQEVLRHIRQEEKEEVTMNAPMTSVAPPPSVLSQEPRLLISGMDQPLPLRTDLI
# [4] = Lipophilicity, logP of compound by RP-HPLC analysis; type: physicochemical
# MC-38 [5] = test: In vivo activation of STING in naive […] mouse implanted with mouse MC38 cells assessed as increase in IL-6 level in plasma at 30 mg/kg, po administered as single dose and measured after 4 hrs by ELISA; type: functional, organism-based
# [6] = Volume of distribution at steady state in Sprague-Dawley rat at 50 mg/kg, po measured for 1440 mins by LC-MS/MS analysis; type: ADME, organism-based; conditions: in vivo, 24 h
# [7] = tested on: Stimulator of interferon genes protein (Homo sapiens), Q86WV6 [UNDEFINED MUTATION]; test: Binding affinity to recombinant human STING AQ variant expressed in Escherichia coli BL21 (DE3) assessed as thermal stabilization by measuring change in melting temperature at 0.1 mM incubated for 30 mins by SYPRO orange dye based differential scanning fluorimetry assay
# Chain of Stimulator of interferon genes protein (Homo sapiens), Q86WV6 [UNDEFINED MUTATION] (Q86WV6 whole entry, looked up, stated change not applied): as the sequence (Q86WV6 whole entry) above
# [8] = Cmax in Sprague-Dawley rat at 50 mg/kg, po measured for 1440 mins by LC-MS/MS analysis; type: ADME, organism-based; set-up: time 1440 min, dose 50 mg/kg, route po; conditions: in vivo
# 4T1-Luc = test: Antitumor activity against mouse 4T1-Luc cells implanted in naive BALB/c mouse assessed as tumor growth inhibition at 20 mg/kg, po administered once every 5 days and measured after 15 days by digital caliper analysis; type: functional, organism-based; conditions: time 15.0 day
# [9] = Stability in human plasma assessed as parent compound remaining at 1 uM incubated for 24 hrs in presence of NADPH by LC-MS/MS analysis; type: ADME, cell-free; conditions: read-out: Stability
# [10] = molecular target: T1, Stimulator of interferon genes protein; test: Agonist activity at STING in human THP-1 cells assessed as increase in IL6 mRNA expression at 10 uM measured after 3 hrs by qRT-PCR analysis; type: cell-based; conditions: filed as agonist
# Target sequence in this assay (Q86WV6 whole entry): as the sequence (Q86WV6 whole entry) above
# [11] = Oral bioavailability in Sprague-Dawley rat at 50 mg/kg measured for 1440 mins by LC-MS/MS analysis; type: ADME, organism-based; conditions: in vivo
# [12] = Stability in dog plasma assessed as interconversion into (S)-4-(5,6-Dimethoxybenzo[b]selenophen-2-yl)-2-ethyl-4-oxobutanoic acid incubated for 24 hrs by normal-phase HPLC analysis; type: ADME, cell-free, Canis lupus familiaris
# [13] = molecular target: T1, Stimulator of interferon genes protein; test: Binding affinity to recombinant human STING H232 variant expressed in Escherichia coli BL21 (DE3) assessed as dissociation constant by multicycle SPR analysis
# Target sequence in this assay (Q86WV6 whole entry, looked up, change not shown): as the sequence (Q86WV6 whole entry) above
# hERG = hERG (Homo sapiens, UniProt Q12809); test: Inhibition of hERG expressed in HEK293 cells at 10 uM incubated for 5 mins by QPatch automated patch-clamp technique relative to control; type: toxicity, cell-based; conditions: HEK293 cells that express hERG
# Chain of hERG (Q12809 whole entry): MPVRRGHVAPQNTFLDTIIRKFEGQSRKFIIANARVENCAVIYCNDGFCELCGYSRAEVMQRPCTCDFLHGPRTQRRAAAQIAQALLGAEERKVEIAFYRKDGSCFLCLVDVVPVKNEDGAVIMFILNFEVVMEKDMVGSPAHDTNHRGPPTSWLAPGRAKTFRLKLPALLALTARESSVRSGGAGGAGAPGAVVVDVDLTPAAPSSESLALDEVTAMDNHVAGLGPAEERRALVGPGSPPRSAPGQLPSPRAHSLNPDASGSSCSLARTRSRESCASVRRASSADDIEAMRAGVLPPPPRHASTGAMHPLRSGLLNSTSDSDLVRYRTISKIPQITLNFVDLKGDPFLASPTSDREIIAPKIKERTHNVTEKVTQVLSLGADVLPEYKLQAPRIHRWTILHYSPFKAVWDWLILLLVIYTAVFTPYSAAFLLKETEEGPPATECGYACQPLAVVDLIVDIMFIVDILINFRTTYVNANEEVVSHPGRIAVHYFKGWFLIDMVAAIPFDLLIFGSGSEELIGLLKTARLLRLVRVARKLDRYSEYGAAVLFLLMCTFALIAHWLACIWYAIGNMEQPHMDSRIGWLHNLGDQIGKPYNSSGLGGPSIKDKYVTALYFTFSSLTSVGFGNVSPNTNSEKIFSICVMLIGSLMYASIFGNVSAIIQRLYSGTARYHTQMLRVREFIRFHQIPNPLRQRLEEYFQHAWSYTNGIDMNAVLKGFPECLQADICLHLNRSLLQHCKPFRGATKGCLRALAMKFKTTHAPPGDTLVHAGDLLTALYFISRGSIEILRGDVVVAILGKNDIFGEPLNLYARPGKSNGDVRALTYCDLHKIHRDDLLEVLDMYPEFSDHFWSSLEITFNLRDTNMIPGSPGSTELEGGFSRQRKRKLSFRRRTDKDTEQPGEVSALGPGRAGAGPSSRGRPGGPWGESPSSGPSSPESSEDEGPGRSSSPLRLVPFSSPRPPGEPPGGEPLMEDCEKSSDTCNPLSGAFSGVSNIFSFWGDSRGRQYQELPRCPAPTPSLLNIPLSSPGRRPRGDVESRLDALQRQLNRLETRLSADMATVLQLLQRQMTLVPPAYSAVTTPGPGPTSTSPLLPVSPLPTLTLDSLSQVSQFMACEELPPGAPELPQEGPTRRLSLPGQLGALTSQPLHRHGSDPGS
# Mus musculus = test: Immunostimulatory activity in naive […] mouse implanted with mouse MC38 cells assessed as increase in CD69-positive NK cells in spleen at 30 mg/kg, po by FACS analysis (reference value: 4.7%); type: functional, MC-38
# [14] = Half life in Sprague-Dawley rat at 5 mg/kg, iv measured for 1440 mins by LC-MS/MS analysis; type: ADME, organism-based; conditions: in vivo
# [15] = molecular target: T1, Stimulator of interferon genes protein; test: Agonist activity at STING in human THP-1 cells harboring IRF-inducible luciferase reporter construct assessed as increase in IRF3 phosphorylation at 50 uM measured after 3 hrs by Western blot analysis; type: cell-based; conditions: filed as agonist
# Target sequence in this assay (Q86WV6 whole entry): as the sequence (Q86WV6 whole entry) above
# [16] = molecular target: T1, Stimulator of interferon genes protein; test: Agonist activity at STING in human THP-1 cells harboring IRF-inducible luciferase reporter construct assessed as increase in TBK1 phosphorylation at 50 uM measured after 1 hrs by Western blot analysis; type: cell-based; conditions: filed as agonist
# Target sequence in this assay (Q86WV6 whole entry): as above
# [17] = Protein binding in plasma (unknown origin) assessed as unbound fraction at 2 uM incubated for 4 hrs under shaking condition by rapid equilibrium dialysis method; type: ADME, cell-free
# [18] = Clearance in Sprague-Dawley rat at 5 mg/kg, iv measured for 1440 mins by LC-MS/MS analysis; type: ADME, organism-based; conditions: in vivo
# MC-38 [19] = test: Antitumor activity against mouse MC38 cells implanted in C57BL/6 mouse assessed as tumor growth regression at 30 mg/kg, po administered once every 3 days and measured after 21 days by digital caliper analysis relative to control; type: functional; conditions: time 21 day
# [20] = molecular target: T1, Stimulator of interferon genes protein; test: Agonist activity at STING in human THP-1 cells assessed as increase in CXCL10 mRNA expression at 10 uM measured after 3 hrs by qRT-PCR analysis; type: cell-based; conditions: filed as agonist
# Target sequence in this assay (Q86WV6 whole entry): as above
# CT26 = test: In vivo activation of STING in naive BALB/c mouse implanted with mouse CT26 cells assessed as increase in IFN-gamma level in plasma at 20 mg/kg, po administered as single dose and measured after 4 hrs by ELISA; type: functional, organism-based
# [21] = molecular target: T2, Stimulator of interferon genes protein (Mus musculus); test: Agonist activity at STING in mouse MEF cells assessed as increase in IL6 mRNA expression at 10 uM measured after 3 hrs by qRT-PCR analysis; type: cell-based; conditions: filed as agonist
# [22] = molecular target: T1, Stimulator of interferon genes protein; test: Agonist activity at STING in human THP-1 cells harboring IRF-inducible luciferase reporter construct assessed as increase in relative fluorescence unit incubated for 12 hrs by Quanti-luc reagent based assay; type: cell-based
# Target sequence in this assay (Q86WV6 whole entry): as above
# [23] = Stability in human plasma assessed as interconversion into (S)-4-(5,6-Dimethoxybenzo[b]selenophen-2-yl)-2-ethyl-4-oxobutanoic acid incubated for 24 hrs by normal-phase HPLC analysis; type: ADME, cell-free
# [24] = Half life in Sprague-Dawley rat at 50 mg/kg, po measured for 1440 mins by LC-MS/MS analysis; type: ADME, organism-based; conditions: in vivo
# [25] = Stability in rat liver microsomes assessed as parent compound remaining at 1 uM incubated for 2 hrs in presence of NADPH by LC-MS/MS analysis; type: ADME, Microsome; conditions: read-out: Stability
smiles,measurement,setting,value
CC[C@H](CC(=O)c1cc2cc(OC)c(OC)cc2[se]1)C(=O)O,Vd,[1],0.26 L/kg
same,Activity,[2],Dde
same,Activity,[3],Active
same,logP,[4],2.4
same,Activity,MC-38 [5],Active
same,Vdss,[6],0.38 L/kg
same,ΔTm,[7],30.3 °C
same,Cmax,[8],58.2 µg/mL
same,Activity,4T1-Luc,Active
same,"remaining at 24 h, 1 µM",[9],98%
same,Activity,[10],Active
same,bioavailability,[11],107%
same,Stability,[12],Stable
same,Kd,[13],58 µM
same,"inhibition at 5 min, 10 µM",hERG,-0.7%
same,Activity,Mus musculus,46.8%
same,half-life,[14],1.04 h
same,Activity,[15],Active
same,Activity,[16],Active
same,Fu,[17],0.07%
same,clearance,[18],2.83 mL/min/kg
same,Activity,MC-38 [19],100%
same,Activity,[20],Active
same,Activity,CT26,Active
same,Activity,[21],Active
same,EC50,[22],9.24 µM
same,Stability,[23],Stable
same,half-life,[24],1.6 h
same,"remaining at 2 h, 1 µM",[25],100%
